Patent US20230272390A1, “COMPOSITIONS AND METHODS FOR HEMOGLOBIN PRODUCTION” (THE CHILDREN'S HOSPITAL OF PHILADELPHIA, priority 2020, published 2023)

Legend:
ZNF410 [1] = test: RNA-seq in ZNF410 depleted differentiated HUDEP-2 cells; assay type: cell-based, human; details: vs non-targeting sgRNA
Experimental: HUDEP-2 cells were cultured and differentiated as described (Kurita, et al. (2013) PLoS One 8:e59890). Briefly, StemSpan™ Serum-Free Expansion Medium (SFEM) supplemented with 50 ng/ml human stem cell factor (SCF), 10 μM dexamethasone, 1 μg/ml doxycycline, 3 IU/ml erythropoietin and 1% penicillin/streptomycin was utilized for routine cell maintenance. Cell density was kept at 0.1-1×10^6/ml. HUDEP-2 cells were differentiated for 6-7 days in IMDM supplemented with 50 ng/ml human SCF, 3 IU/ml erythropoietin, 2.5% fetal bovine serum, 250 μg/ml holo-transferrin, 10 ng/ml heparin, 10 μg/ml insulin, 1 μg/ml doxycycline and 1% penicillin/streptomycin.
Lentivirus was produced as described (Grevet, et al. (2018) Science 361:285-290). Briefly, 10-20 μg of expression vectors, 5-10 μg of pVSVG (pMD2.G) and 7.5-15 μg of psPAX2 package plasmids, and 80 μl of 1 mg/ml polyethylenimine (PEI) were mixed, incubated for 15-20 minutes, and added to HEK293T cells grown in 10 cm plates to above 90% confluence. Media were replaced 6-8 hours post transfection, virus was collected 24 hours and 48 hours post-transfection and pooled. For infection, virus-containing supernatant was mixed with the indicated cell lines with 8 μg/ml polybrene and 10 mM HEPES, and then spun at 2250 rpm for 1.5 hours at room temperature. Infected HUDEP-2 cells were selected for mCherry+ or GFP+ cell sorting at 48 hours post-infection.
(§1) Total RNAs were purified as described above. Sequencing libraries were then constructed using 100 ng of purified total RNA using the ScriptSeg™ Complete Kit (Illumina cat #BHMR1224) according to manufacturer's protocol. RNA was subjected to rRNA depletion using the Ribo-Zero™ removal reagents and fragmented. First strand cDNA was synthesized using a 5′ tagged random hexamer, and reversely transcribed, followed by annealing of a 5′ tagged, 3′-end blocked terminal-tagged oligo for second strand synthesis. The Di-tagged cDNA fragments were purified, barcoded, and PCR-amplified for 15 cycles.
(§2) The size and quality of each library were evaluated by Bioanalyzer 2100 (Agilent Technologies, Santa Clara, Calif.), and quantified using qPCR. Libraries were sequenced in paired-end mode on a NextSeq 500 instrument to generate 2×76 bp reads using Illumina-supplied kits. The sequence reads were processed using the ENCODE3 long RNA-seq pipeline (encodeproject.org/pipelines/ENCPL002LPE/). In brief, reads were mapped to the human genome (hg38 assembly) using STAR, followed by RSEM for gene quantifications.
(§3) The normalized FPKM (fragments per kilo base per million mapped reads) for each gene was averaged in 2 replicates and then filtered to keep those with average FPKM at least 10 in both HUDEP-2 cells and primary erythroblasts, resulting in ˜5000 high abundant genes each cell type for further analysis. Log2 fold-change was calculated from FPKM of sgRNA targeting ZNF410 compared to control sgRNA (non-targeting sgRNA) using the DESeq2 method, and top changed genes were selected with fold-change at least 1.5 and p-value<0.05. Commonly changed genes in both independent sgRNAs were considered to be significant. Scatter plots were generated using ggplot2 in RStudio for all expressed genes (FPKM>5).
(§4) ZNF410 functions as a transcriptional activator (Benanti, et al. (2002) Mol. Cell Biol., 22:7385-7397). To understand how ZNF410 regulates the transcription of γ-globin genes, RNA-seq experiments were performed in ZNF410 depleted differentiated HUDEP-2 cells and primary human erythroblasts.

ZNF410 [2] = test: RNA-seq in ZNF410 depleted primary human erythroblasts (CD34+ HSPC derived); assay type: cell-based; details: primary CD34+ cells (erythroblasts), vs non-targeting sgRNA
Experimental: Primary human CD34+ HSPCs from mobilized peripheral blood were purchased from the Fred Hutchinson Cancer Research Center. Human CD34+ HSPCs were differentiated using a three-phase culture system as described (Grevet, et al. (2018) Science 361:285-290). Briefly, IMDM supplemented with 3 IU/ml erythropoietin, 2.5% human male AB serum, 10 ng/ml heparin, and 10 μg/ml insulin was used as base medium. For phase I medium, 100 ng/ml human SCF, 5 ng/ml IL-3, and 250 μg/ml holo-transferrin were supplemented. For phase II medium, 100 ng/ml human SCF and 250 μg/ml holo-transferrin were added. For phase III medium, 1.25 mg/ml holo-transferrin was supplemented.
Commercial sgRNAs were purchased from IDT (Coralville, Iowa) or Synthego (Menlo Park, Calif.). To assemble the RNP complexes, 100 pmol sgRNA and 50 pmol SpCas9 protein (from IDT) were incubated at room temperature for 15 minutes. CD34+ HSPCs (50k-100k) at Day 3-4 of phase I culture were electroporated using P3 Primary Cell 4D Nucleofector™ X Kit (from Lonza) with the program DZ100 (Bak, et al. (2018) Nat. Protoc., 13:358-376).
as §1, §2, §3, §4

Substance	log2(sgRNA/NT) AC092490.1 transcript (ZNF410 [1])	log2(sgRNA/NT) AC104389.5 transcript (ZNF410 [1])	log2(sgRNA/NT) AK1 transcript (ZNF410 [1])	log2(sgRNA/NT) CD63 transcript (ZNF410 [1])	log2(sgRNA/NT) CHD4 transcript (ZNF410 [1])	log2(sgRNA/NT) CKB transcript (ZNF410 [1])	log2(sgRNA/NT) FOS transcript (ZNF410 [1])	log2(sgRNA/NT) H1F0 transcript (ZNF410 [1])	log2(sgRNA/NT) HBG1/2 transcript (ZNF410 [1])	log2(sgRNA/NT) PRG2 transcript (ZNF410 [1])	log2(sgRNA/NT) S100A10 transcript (ZNF410 [1])	log2(sgRNA/NT) SCARNA3 transcript (ZNF410 [1])	log2(sgRNA/NT) TUBA1A transcript (ZNF410 [1])	log2(sgRNA/NT) AC092490.1 transcript (ZNF410 [2])	log2(sgRNA/NT) ACSL6 transcript (ZNF410 [2])	log2(sgRNA/NT) CBX6 transcript (ZNF410 [2])	log2(sgRNA/NT) CHD4 transcript (ZNF410 [2])	log2(sgRNA/NT) HBG1/2 transcript (ZNF410 [2])	log2(sgRNA/NT) HSPB1 transcript (ZNF410 [2])	log2(sgRNA/NT) PAFAH1B3 transcript (ZNF410 [2])	also measured
ZNF410 sgRNA#1: sgRNA targeting the DNA-binding domain of ZNF410, GAACCACCAGATGTTTTCGG (SEQ ID NO: 4) (listed as DNA, chemistry not given here)	−1.45	3.95	1.99	1.90	−0.99	2.44	−1.32	2.41	4.26	2.09	−1.60	−0.89	−1.06	−1.50	−1.67	−1.56	−0.93	1.47	2.01	1.35	log2(sgRNA/NT) ATF5 transcript (ZNF410 [1]): 1.65; log2(sgRNA/NT) GLIPR2 transcript (ZNF410 [1]): −1.14; log2(sgRNA/NT) MIF transcript (ZNF410 [1]): 1.92; log2(sgRNA/NT) PPP4R1 transcript (ZNF410 [1]): −0.95; log2(sgRNA/NT) RF00019 transcript (ZNF410 [1]): −2.43; log2(sgRNA/NT) TMCC2 transcript (ZNF410 [1]): −1.18; log2(sgRNA/NT) TMSB10 transcript (ZNF410 [1]): 1.79; log2(sgRNA/NT) COA4 transcript (ZNF410 [2]): 1.30; log2(sgRNA/NT) DYNLT1 transcript (ZNF410 [2]): 1.27; log2(sgRNA/NT) GPCPD1 transcript (ZNF410 [2]): −0.93; log2(sgRNA/NT) ISOC2 transcript (ZNF410 [2]): 1.34; log2(sgRNA/NT) PKN1 transcript (ZNF410 [2]): 1.32; log2(sgRNA/NT) PRDX5 transcript (ZNF410 [2]): −1.00; log2(sgRNA/NT) RPS19BP1 transcript (ZNF410 [2]): 1.42; log2(sgRNA/NT) SELENOW transcript (ZNF410 [2]): 1.55; log2(sgRNA/NT) SMOX transcript (ZNF410 [2]): −1.45; log2(sgRNA/NT) SPC25 transcript (ZNF410 [2]): −0.93; log2(sgRNA/NT) STUB1 transcript (ZNF410 [2]): 1.46; log2(sgRNA/NT) TMCC2 transcript (ZNF410 [2]): −2.01; log2(sgRNA/NT) ZNF410 transcript (ZNF410 [2]): −1.49
ZNF410 sgRNA#2: sgRNA targeting the DNA-binding domain of ZNF410, CTCATCAGTGCCAAGTCTGT (SEQ ID NO: 5) (listed as DNA, chemistry not given here)	−1.50	4.01	1.83	1.75	−1.23	2.24	−1.88	2.13	4.28	2.17	−1.59	−1.30	−1.07	−1.47	−1.47	−2.01	−1.08	1.75	2.15	1.40	log2(sgRNA/NT) PLA2G6 transcript (ZNF410 [1]): −1.01; log2(sgRNA/NT) RNU5B-1 transcript (ZNF410 [1]): 3.60; log2(sgRNA/NT) RNU5E-1 transcript (ZNF410 [1]): 1.82; log2(sgRNA/NT) RNU6-11P transcript (ZNF410 [1]): −1.11; log2(sgRNA/NT) SCARNA18 transcript (ZNF410 [1]): −1.20; log2(sgRNA/NT) SLC2A3P1 transcript (ZNF410 [1]): −1.49; log2(sgRNA/NT) SNORD97 transcript (ZNF410 [1]): 2.29; log2(sgRNA/NT) AC104389.5 transcript (ZNF410 [2]): 1.43; log2(sgRNA/NT) AC130456.3 transcript (ZNF410 [2]): −2.03; log2(sgRNA/NT) CDKN1A transcript (ZNF410 [2]): 1.38; log2(sgRNA/NT) IFI27 transcript (ZNF410 [2]): 1.78; log2(sgRNA/NT) KDM7A transcript (ZNF410 [2]): −1.32; log2(sgRNA/NT) PKN1 transcript (ZNF410 [2]): 1.43; log2(sgRNA/NT) PRDX5 transcript (ZNF410 [2]): −1.09; log2(sgRNA/NT) RN7SL471P transcript (ZNF410 [2]): 1.60; log2(sgRNA/NT) SELENOW transcript (ZNF410 [2]): 1.67; log2(sgRNA/NT) SMOX transcript (ZNF410 [2]): −1.24; log2(sgRNA/NT) STUB1 transcript (ZNF410 [2]): 1.40; log2(sgRNA/NT) TMCC2 transcript (ZNF410 [2]): −1.69; log2(sgRNA/NT) ZNF410 transcript (ZNF410 [2]): −1.24
